Literature values in patent US8592434B2, “Mucoadhesive buccal tablets for the treatment of orofacial herpes” (BioAlliance Pharma SA, priority 2009, dated 2013).

Conditions: oral treatment, irrespective of the dosage and duration

Headaches, treated patients | Compound
about 10% | CC(C)[C@H](N)C(=O)OCCOCn1cnc2c(=O)[nH]c(N)nc21 [valacyclovir, L-valine ester of acyclovir]
about 10% | CC(=O)OCC(CCn1cnc2cnc(N)nc21)COC(C)=O [famciclovir, diacetyl ester of 6-deoxy pencyclovir]
